According to US20120029187A1, “HALOALKYLSULFONANILIDE DERIVATIVE” (Nissan Chemical Industries, Ltd., priority 2009, published 2012):

Tests used:
Type in all cases: in vivo
giant foxtail [1] = assay: Test Example 4: herbicidal effect in foliage treatment; conditions: dose 6.3 g/a, three weeks after application
In short: (§1)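 Visual herbicidal scores on a graded scale were recorded three weeks after foliar application. Compounds went on as diluted emulsifiable concentrates at predetermined g/a to plants grown 14 days in a 25 to 30° C greenhouse.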

large crabgrass [2] = assay: as above; conditions: dose 6.3 g/a, three weeks after application
In short: as §1

barnyardgrass [3] = assay: as above; conditions: dose 6.3 g/a, three weeks after application
In short: as §1

Italian ryegrass [4] = assay: as above; conditions: dose 6.3 g/a, three weeks after application
In short: as §1

common ragweed [5] = assay: as above; conditions: dose 6.3 g/a, three weeks after application
In short: as §1

redroot pigweed [6] = assay: as above; conditions: dose 6.3 g/a, three weeks after application
In short: as §1

common lambsquater [7] = assay: as above; conditions: dose 6.3 g/a, three weeks after application
In short: as §1

common chickweed [8] = assay: as above; conditions: dose 6.3 g/a, three weeks after application
In short: as §1

water foxtail [9] = assay: as above; conditions: dose 6.3 g/a, three weeks after application
In short: as §1

beadstraw = assay: as above; conditions: dose 6.3 g/a, three weeks after application
In short: as §1

wild oat [10] = assay: as above; conditions: dose 6.3 g/a, three weeks after application
In short: as §1

bulrush [11] = assay: Test Example 2: herbicidal effects during the vegetation period under submerged conditions; conditions: treatment during the vegetation period under submerged conditions; dose 2.52 g/a
In short: (§2)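 Barnyardgrass, bulrush and ducksalad were co-sown in alluvial soil flooded to 4 cm and grown in a greenhouse at 25 to 30° C. At the 1- or 2-leaf stage, water-diluted emulsifiable concentrates went onto the water surface at set doses (g/a). Herbicidal effect was scored three weeks later on a graded scale.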

barnyardgrass [12] = assay: as above; conditions: treatment during the vegetation period under submerged conditions; dose 2.52 g/a
In short: as §2

ducksalad [13] = assay: as above; conditions: treatment during the vegetation period under submerged conditions; dose 2.52 g/a
In short: as §2

transplanted rice = assay: Test Example 1: preemergence treatment under submerged conditions, effect on crop; conditions: dose 2.52 g/a
In short: (§3)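 Flooded-paddy preemergence assay; EC diluted with water, surface-applied at weed seeding; doses g/a; rice transplanted at 2.5 leaves; 0–5 mortality score after 3 weeks.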

bulrush [14] = assay: Test Example 1: herbicidal effects in preemergence treatment under submerged conditions; conditions: dose 2.52 g/a
In short: as §3

barnyardgrass [15] = assay: as above; conditions: dose 2.52 g/a
In short: as §3

ducksalad [16] = assay: as above; conditions: dose 2.52 g/a
In short: as §3

giant foxtail [17] = assay: Test Example 3: herbicidal effects in soil treatment; conditions: dose 6.3 g/a
In short: (§4)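 Seeds were sown in sterilized diluvial soil and covered with about 1.5 cm of soil. Compounds, formulated as emulsifiable concentrates and diluted with water, were sprayed evenly over the soil surface at set doses in g/a. Herbicidal effect was scored on a rating scale three weeks later.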

large crabgrass [18] = assay: as above; conditions: dose 6.3 g/a
In short: as §4

barnyardgrass [19] = assay: as above; conditions: dose 6.3 g/a
In short: as §4

Italian ryegrass [20] = assay: as above; conditions: dose 6.3 g/a
In short: as §4

common ragweed [21] = assay: as above; conditions: dose 6.3 g/a
In short: as §4

redroot pigweed [22] = assay: as above; conditions: dose 6.3 g/a
In short: as §4

common lambsquater [23] = assay: as above; conditions: dose 6.3 g/a
In short: as §4

water foxtail [24] = assay: as above; conditions: dose 6.3 g/a
In short: as §4

wild oat [25] = assay: as above; conditions: dose 6.3 g/a
In short: as §4

common chickweed [26] = assay: as above; conditions: dose 6.3 g/a
In short: as §4

| Compound | E: giant foxtail, herbicidal effect (giant foxtail [1]) | D: large crabgrass, herbicidal effect (large crabgrass [2]) | A: barnyardgrass, herbicidal effect (barnyardgrass [3]) | H: Italian ryegrass, herbicidal effect (Italian ryegrass [4]) | J: common ragweed, herbicidal effect (common ragweed [5]) | L: common lambsquater, herbicidal effect (common lambsquater [7]) | N: common chickweed, herbicidal effect (common chickweed [8]) | G: water foxtail, herbicidal effect (water foxtail [9]) | O: beadstraw, herbicidal effect (beadstraw) | F: wild oat, herbicidal effect (wild oat [10]) | B: bulrush, herbicidal effect (evaluation scale 0-5) (bulrush [11]) | A: barnyardgrass, herbicidal effect (evaluation scale 0-5) (barnyardgrass [12]) | C: ducksalad, herbicidal effect (evaluation scale 0-5) (ducksalad [13]) | B: bulrush, herbicidal effect (evaluation scale 0-5) (bulrush [14]) | A: barnyardgrass, herbicidal effect (evaluation scale 0-5) (barnyardgrass [15]) | C: ducksalad, herbicidal effect (evaluation scale 0-5) (ducksalad [16]) | E: giant foxtail, herbicidal effect (evaluation scale 0-5) (giant foxtail [17]) | D: large crabgrass, herbicidal effect (evaluation scale 0-5) (large crabgrass [18]) | A: barnyardgrass, herbicidal effect (evaluation scale 0-5) (barnyardgrass [19]) | H: Italian ryegrass, herbicidal effect (evaluation scale 0-5) (Italian ryegrass [20]) | other results |
| --- | --- | --- | --- | --- | --- | --- | --- | --- | --- | --- | --- | --- | --- | --- | --- | --- | --- | --- | --- | --- | --- |
| CC1CC(=O)N(Cc2ccccc2N(C(=O)c2ccccc2)S(=O)(=O)C(F)(F)F)CO1 (centres unmarked) [II-6] | 4 (mortality of at least 70% and less than 90%) | 4 (mortality of at least 70% and less than 90%) | 5 (mortality of 90% or above (nearly complete death)) | 3 (mortality of at least 40% and less than 70%) | 5 (mortality of 90% or above (nearly complete death)) | 1 (mortality of at least 5% and less than 20%) | 1 (mortality of at least 5% and less than 20%) | 5 (mortality of 90% or above (nearly complete death)) | 2 (mortality of at least 20% and less than 40%) | 0 (mortality of less than 5% (almost ineffective)) | 5 (mortality of 90% or above (nearly complete death)) | 5 (mortality of 90% or above (nearly complete death)) | 4 (mortality of at least 70% and less than 90%) | 5 (mortality of 90% or above (nearly complete death)) | 5 (mortality of 90% or above (nearly complete death)) | 5 (mortality of 90% or above (nearly complete death)) | 4 (mortality of at least 70% and less than 90%) | 4 (mortality of at least 70% and less than 90%) | 5 (mortality of 90% or above (nearly complete death)) | 3 (mortality of at least 40% and less than 70%) | K: redroot pigweed, herbicidal effect (redroot pigweed [6]): 0 (mortality of less than 5% (almost ineffective)); a: transplanted rice, effect on crop (evaluation scale 0-5) (transplanted rice): 0 (mortality of less than 5% (almost ineffective)); J: common ragweed, herbicidal effect (evaluation scale 0-5) (common ragweed [21]): 4 (mortality of at least 70% and less than 90%); K: redroot pigweed, herbicidal effect (evaluation scale 0-5) (redroot pigweed [22]): 0 (mortality of less than 5% (almost ineffective)); L: common lambsquater, herbicidal effect (evaluation scale 0-5) (common lambsquater [23]): 3 (mortality of at least 40% and less than 70%); G: water foxtail, herbicidal effect (evaluation scale 0-5) (water foxtail [24]): 5 (mortality of 90% or above (nearly complete death)); F: wild oat, herbicidal effect (evaluation scale 0-5) (wild oat [25]): 0 (mortality of less than 5% (almost ineffective)) |
| CCOC(=O)N(c1ccccc1CN1COC(C)(C)CC1=O)S(=O)(=O)C(F)(F)F [II-23, 6,6-dimethyl-3-[2-(N-ethoxycarbonyl-N-trifluoromethanesulfonyl)aminobenzyl]-1,3-oxazinan-4-one] | 4 (mortality of at least 70% and less than 90%) | 5 (mortality of 90% or above (nearly complete death)) | 5 (mortality of 90% or above (nearly complete death)) | 4 (mortality of at least 70% and less than 90%) | 5 (mortality of 90% or above (nearly complete death)) | 4 (mortality of at least 70% and less than 90%) | 4 (mortality of at least 70% and less than 90%) | 5 (mortality of 90% or above (nearly complete death)) | 5 (mortality of 90% or above (nearly complete death)) | 0 (mortality of less than 5% (almost ineffective)) | 5 (mortality of 90% or above (nearly complete death)) | 5 (mortality of 90% or above (nearly complete death)) | 5 (mortality of 90% or above (nearly complete death)) | 5 (mortality of 90% or above (nearly complete death)) | 5 (mortality of 90% or above (nearly complete death)) | 5 (mortality of 90% or above (nearly complete death)) | 5 (mortality of 90% or above (nearly complete death)) | 5 (mortality of 90% or above (nearly complete death)) | 5 (mortality of 90% or above (nearly complete death)) | 4 (mortality of at least 70% and less than 90%) | a: transplanted rice, effect on crop (evaluation scale 0-5) (transplanted rice): 0 (mortality of less than 5% (almost ineffective)); J: common ragweed, herbicidal effect (evaluation scale 0-5) (common ragweed [21]): 5 (mortality of 90% or above (nearly complete death)); L: common lambsquater, herbicidal effect (evaluation scale 0-5) (common lambsquater [23]): 2 (mortality of at least 20% and less than 40%); N: common chickweed, herbicidal effect (evaluation scale 0-5) (common chickweed [26]): 4 (mortality of at least 70% and less than 90%); G: water foxtail, herbicidal effect (evaluation scale 0-5) (water foxtail [24]): 5 (mortality of 90% or above (nearly complete death)); F: wild oat, herbicidal effect (evaluation scale 0-5) (wild oat [25]): 0 (mortality of less than 5% (almost ineffective)) |
| CC1(C)CC(=O)N(Cc2ccccc2N(C(=O)C2CC2)S(=O)(=O)C(F)(F)F)CO1 [II-20] | 5 (mortality of 90% or above (nearly complete death)) | 5 (mortality of 90% or above (nearly complete death)) | 5 (mortality of 90% or above (nearly complete death)) | 4 (mortality of at least 70% and less than 90%) | 5 (mortality of 90% or above (nearly complete death)) | 0 (mortality of less than 5% (almost ineffective)) | 3 (mortality of at least 40% and less than 70%) | 5 (mortality of 90% or above (nearly complete death)) | 4 (mortality of at least 70% and less than 90%) | 0 (mortality of less than 5% (almost ineffective)) | 5 (mortality of 90% or above (nearly complete death)) | 5 (mortality of 90% or above (nearly complete death)) | 5 (mortality of 90% or above (nearly complete death)) | 5 (mortality of 90% or above (nearly complete death)) | 5 (mortality of 90% or above (nearly complete death)) | 5 (mortality of 90% or above (nearly complete death)) | 4 (mortality of at least 70% and less than 90%) | 4 (mortality of at least 70% and less than 90%) | 5 (mortality of 90% or above (nearly complete death)) | 5 (mortality of 90% or above (nearly complete death)) | K: redroot pigweed, herbicidal effect (redroot pigweed [6]): 0 (mortality of less than 5% (almost ineffective)); J: common ragweed, herbicidal effect (evaluation scale 0-5) (common ragweed [21]): 4 (mortality of at least 70% and less than 90%); K: redroot pigweed, herbicidal effect (evaluation scale 0-5) (redroot pigweed [22]): 0 (mortality of less than 5% (almost ineffective)); L: common lambsquater, herbicidal effect (evaluation scale 0-5) (common lambsquater [23]): 0 (mortality of less than 5% (almost ineffective)); N: common chickweed, herbicidal effect (evaluation scale 0-5) (common chickweed [26]): 4 (mortality of at least 70% and less than 90%); G: water foxtail, herbicidal effect (evaluation scale 0-5) (water foxtail [24]): 5 (mortality of 90% or above (nearly complete death)); F: wild oat, herbicidal effect (evaluation scale 0-5) (wild oat [25]): 0 (mortality of less than 5% (almost ineffective)) |
